1 compound from patent US20070248672A1, “Indole and Azaindole Derivatives with Antitumor Action” (priority 2004, published 2007) can be followed below.

Molecules are shown by their SMILES. Read-outs that look alike come from different tables or passages of the source.

In data set [1] the test system is HT29 cells. In words: Antiproliferative activity, 72 h treatment, SRB assay, HT29. To be noted: Homo sapiens. It is filed as cell-based, human. How it is done: HT29 and HT29/Mit (line obtained by prolonged exposure to mitoxantrone, and characterised by overexpression of BCRP, which confers cross resistance to topotecan, irinotecan and to its metabolite SN38): maintained in McCoy 5A medium+10% FCS.
2.2 Scheme of the Antiproliferative Activity Experiment (Treatment Time: 72 Hours)
(§1) The cells (HT29 and HT29/Mit: 40,000 cells/ml, LoVo, LoVo/Dx and HCT116: 50,000 cells/ml) are seeded in 100 μl of the respective culture media in 96-well plates. 24 hours after seeding, an aliquot (10 μl) of drug at the various concentrations is added. In the samples in which the effect of the combination of two compounds is to be tested the inhibitor is added immediately before the cytotoxic. For each dose or combination of doses/drugs the effect of the treatment is determined in 4-8 replicates.
(§2) After 72 hours of treatment the antiproliferative effect is evaluated using the sulforhodamine B (SRB) assay: the cells are fixed by adding 25 μl of 50% TCA to each well and left for 1 hour at 4° C. After washing them with water and allowing them to dry, 100 μl of 0.4% SRB in 1% acetic acid are added and left for 30 minutes at room temperature. After 4 washes in 1% acetic acid, they are left to dry then the dye fixed by the proteins is dissolved under basic conditions with 100 μl 10 mM cold Tris and the solution is read using a spectrophotometer at 550 nm.
(§3) Percentage cell growth is calculated as the optical density of treated samples compared to the optical density of controls (untreated cells).
A general note: In SRB staining, fixed cells bind dye roughly in proportion to their protein.

Data set [2] deals with HT29/Mit human colon carcinoma xenografts. In words: HT29/Mit human colon carcinoma xenograft, antitumor activity. It is filed as in vivo, athymic Swiss nude mice. The text has this: 1.1 Model of HT29/Mit human colon carcinoma xenografts-Antitumor activity Female athymic Swiss nude mice (8-10 weeks old) (Charles River, Calco, Italy) were used for the experiments. The animals were maintained at constant temperature and humidity, and were allowed to eat and drink freely. The experimental protocol was approved by the Ethics Committee for Animal Experimentation of the Istituto Nazionale Tumori of Milan. The antitumour effectiveness of the compounds of the invention under discussion was tested on athymic mouse models implanted with HT29 and/or HT29/Mit tumour cells: this latter variety is highly resistant to topotecan treatment. The tumour cells were implanted in vivo via subcutaneous injection of 10^7 cells taken from in vitro cultures. Randomized groups of five mice with bilateral subcutaneous tumours were used for the experiment. Topotecan or other known antitumour agents (dissolved in distilled water or an appropriate solvent) and the compounds of the invention (dissolved in Cremophor EL: ethanol: saline solution in the proportions 5:5:90, or in an appropriate solvent) were administered orally from the third day, alone or in combination, in agreement with a treatment scheme selected in an appropriate manner depending on the type of compound to be studied. The weight (or volume) of the tumour in treated mice compared to controls is represented graphically on the y-axis against time (x-axis).

A further data set relates to tumour cells. In words: Antiproliferative effect on tumour cells, combined treatment with known antitumour agents. It is filed as cell-based. To be noted: with topotecan, SN38, taxol, doxorubicin and anthracyclines. As to the method: as §1
(§4) The Combination Index (C.I.) was determined according to Kern's method, 1988 (who continued from Drewinko B, 1976) (Kem D. H., Cancer Res. 48, 117-121, 1988; Drewinko B., Cancer Biochem. Biophys. 1, 187-195, 1976) by means of the following formula: […], where SFa and SFb are the fractions of cells surviving to treatment with compound a and b, respectively; SFab is the fraction surviving to the combination of compounds a and b. If the result is =1, the interaction between the two compounds is additive; if it is >1, the interaction between the two compounds is synergistic; if it is <1, the interaction between the two compounds is antagonistic.

Data set [3] deals with Vacuolar ATPase in human osteoclastoma (hOc) (Homo sapiens, UniProt P27449+Q13488). In words: Vacuolar ATPase inhibition in human osteoclastoma (hOc) microsomal fraction. It is filed as biochemical. The note with it: 30 min, 37° C. How it is done: 1.1 Determination of Vacuolar ATpase Inhibition in Human Osteoclastoma (hOc)
Osteoclast-like giant cells isolated from human osteoclastoma are homogenized using a glass-teflon homogeniser (1000 rpm) and the material is centrifuged for 20 minutes at 6000 g. The resultant pellet is resuspended and centrifuged at 100000 g for 60 minutes to sediment the microsomal fraction. The resultant pellet is resuspended in medium at pH 7.4 and stored under liquid nitrogen.
Inhibition of bafilomycin sensitive ATPase activity is assayed by measuring the release of inorganic phosphate during 30 minutes of incubation, at 37° C., of the human osteoclastoma microsomal fraction in 96-well plates. The reaction medium contains 1 mM ATP, 10 mM Hepes-Tris buffer pH 8, 50 mM KCl, 5 μM valinomycin, 5 μM nigericin, 1 mM CDTA-Tris, 100 μM ammonium molybdate, 0.2 M sucrose and the microsomal fraction (20 μg protein/ml). The reaction is initiated by adding MgSO4 and terminated, after 30 minutes, by adding 4 volumes of the reagent malachite green, prepared according to Chan K., Anal. Biochem. 157, 375-380, 1986.

Data set [4] relates to HT29 cells. As to the kind of experiment: Co-treatment with topotecan, HT29 cells (Combination Index according to Kern). It is filed as cell-based, human. To be noted: HT29; compound at 4 μM (3 experiments) and 8 μM (2 experiments), subtoxic doses. As to the method:
as §1, §2, §3, §4

Vacuolar ATPase in human osteoclastoma (hOc), sequence (P27449 whole entry, looked up): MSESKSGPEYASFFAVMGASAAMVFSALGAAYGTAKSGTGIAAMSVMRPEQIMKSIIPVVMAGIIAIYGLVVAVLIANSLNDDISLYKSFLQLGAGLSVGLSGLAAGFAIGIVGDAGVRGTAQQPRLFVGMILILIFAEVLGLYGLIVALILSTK
Vacuolar ATPase in human osteoclastoma (hOc), sequence (Q13488 whole entry, looked up): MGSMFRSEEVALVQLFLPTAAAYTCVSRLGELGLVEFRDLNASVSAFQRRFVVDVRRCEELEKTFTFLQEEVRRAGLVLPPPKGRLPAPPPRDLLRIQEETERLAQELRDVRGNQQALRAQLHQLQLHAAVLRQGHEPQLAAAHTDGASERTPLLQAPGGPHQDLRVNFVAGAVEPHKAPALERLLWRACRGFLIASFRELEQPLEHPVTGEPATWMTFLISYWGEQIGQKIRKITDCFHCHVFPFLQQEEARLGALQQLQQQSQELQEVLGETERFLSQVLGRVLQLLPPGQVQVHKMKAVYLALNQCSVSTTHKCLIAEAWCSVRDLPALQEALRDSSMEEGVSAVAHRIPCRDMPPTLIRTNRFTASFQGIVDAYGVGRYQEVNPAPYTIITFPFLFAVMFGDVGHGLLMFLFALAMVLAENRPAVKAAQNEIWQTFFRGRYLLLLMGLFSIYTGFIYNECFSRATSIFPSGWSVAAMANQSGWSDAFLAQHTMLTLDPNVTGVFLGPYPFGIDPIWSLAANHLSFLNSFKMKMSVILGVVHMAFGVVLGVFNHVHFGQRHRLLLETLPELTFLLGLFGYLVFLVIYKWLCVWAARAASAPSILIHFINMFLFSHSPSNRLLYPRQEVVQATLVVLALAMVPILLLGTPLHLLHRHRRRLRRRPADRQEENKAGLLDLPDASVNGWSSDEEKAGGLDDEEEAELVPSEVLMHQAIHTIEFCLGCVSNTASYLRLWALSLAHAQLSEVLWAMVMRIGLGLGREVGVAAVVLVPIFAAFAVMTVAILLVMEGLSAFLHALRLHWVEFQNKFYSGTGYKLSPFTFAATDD

Turning to `COC(=O)c1[nH]c2cc(OC)c(OC)cc2c1-c1ccc(OC)cc1` [Example 1, 5,6-Dimethoxy-3-(4-methoxy-phenyl)-1H-indole-2-carboxylic acid methyl ester], the half-inhibitory concentration (IC50) with HT29 cells [1] (HT-29, HT29, after 72 hours of treatment, range stated for the group, read-out: IC50 values in the sensitive line) was 5 to 42 µM; with HT29 cells [1] (HT-29, 72 h treatment, read-out: Antiproliferative activity (IC50 ± S.D.) HT-29 72 h treatment), 14.4 ± 2.1 µM; in data set [3], 0.5 µM. For the same compound, in data set [2] (30 mg/kg p.o. with topotecan 1 or 2 mg/kg p.o., statistically significant with 1 mg topotecan), the “antitumoral efficacy of combined administration with topotecan” value is reported as “increased antitumoral efficacy”. Moreover, the tumor growth inhibition in data set [2] (administered alone, 30 mg/kg p.o., after 7 days of treatment, statistically significant) amounted to 43%. The “effect in combination with cytotoxic agents” value with tumour cells is reported as “marked synergistic effects”. Besides, the “effect of combination with topotecan (Combination Index according to Kern)” value in the data set with HT29 cells [4] is “clear synergistic effect”.

Broadly, the IC50 is the midpoint of a concentration-inhibition curve.
